We go through six compounds from paper doi:10.1101/692707v2 (biorxiv, 2020).

The structures appear in SMILES notation.

Assay type in all cases: binding
Assay [1] addresses T1, YdiU^475 (Escherichia coli, UniProt P77649).
T1 sequence (P77649 1-475): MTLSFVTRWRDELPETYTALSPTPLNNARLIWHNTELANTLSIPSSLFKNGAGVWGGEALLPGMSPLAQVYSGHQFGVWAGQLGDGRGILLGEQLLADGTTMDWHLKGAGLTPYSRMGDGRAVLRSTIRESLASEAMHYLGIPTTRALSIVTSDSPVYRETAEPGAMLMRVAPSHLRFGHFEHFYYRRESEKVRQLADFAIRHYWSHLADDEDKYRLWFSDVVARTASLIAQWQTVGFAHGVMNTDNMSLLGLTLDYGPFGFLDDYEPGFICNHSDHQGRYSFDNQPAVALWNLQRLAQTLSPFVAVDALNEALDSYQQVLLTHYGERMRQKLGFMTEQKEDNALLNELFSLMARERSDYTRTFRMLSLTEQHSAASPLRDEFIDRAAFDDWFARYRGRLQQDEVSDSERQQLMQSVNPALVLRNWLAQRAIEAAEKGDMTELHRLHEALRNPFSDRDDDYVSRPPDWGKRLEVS
As to the kind of experiment: SPR. On the technique in general: SPR reads the build-up and loss of mass on a sensor chip optically.

Assay [2] addresses T1, YdiU^475. Kind of assay: X-ray crystal structure. The conditions noted are these: Mg2+, active site.
In assay [3] the target is T1, YdiU^475. Kind of assay: DSF on Uncle platform. To be noted: 2 mM Mn2+, Tm of complex, not a shift, apo 38.3 °C (with 5 mM EDTA).

On YdiU^475 [1], `Nc1ncnc2c1ncn2[C@@H]1O[C@H](COP(=O)(O)OP(=O)(O)NP(=O)(O)O)[C@@H](O)[C@H]1O` [AMPNPP] registered a dissociation constant Kd of roughly 18 µM.
Still for that read-out and setting: the figure for `O=c1ccn([C@@H]2O[C@H](COP(=O)(O)NP(=O)(O)OP(=O)(O)O)[C@@H](O)[C@H]2O)c(=O)[nH]1` [UMPNPP] is roughly 0.14 µM.
`O=P(O)(O)NP(=O)(O)O` [imidodiphosphonic acid]: on YdiU^475 [2] (together with AMP), the X-ray crystal structure was 6III (YdiU-AMP-imidodiphosphonic acid).
Turning to `Nc1ncnc2c1ncn2[C@@H]1O[C@H](COP(=O)(O)O)[C@@H](O)[C@H]1O` [AMP], the X-ray crystal structure on YdiU^475 [2] (together with imidodiphosphate) is 6III (YdiU-AMP-imidodiphosphonic acid).
As to `Nc1ncnc2c1ncn2[C@@H]1O[C@H](COP(=O)(O)OP(=O)(O)OP(=O)(O)O)[C@@H](O)[C@H]1O` [ATP], the Tm1 at YdiU^475 [3] (1 mM ATP) was determined as 50.3 °C.
On to `O=c1ccn([C@@H]2O[C@H](COP(=O)(O)OP(=O)(O)OP(=O)(O)O)[C@@H](O)[C@H]2O)c(=O)[nH]1` [UTP], for which the Tm1 at YdiU^475 [3] (1 mM UTP) was determined as 40.6 °C.

As usually defined, the Kd is the equilibrium constant for the complex coming apart. Low readings indicate tighter binding, high ones weaker binding.
